This passage reports Ki results from US8481576B2 (Abbott GmbH & Co. KG, priority 2004, dated 2013).

pKi: −log10 of the molar value. Structures can show the parent of a compound that is named as a salt. Bounds are passed on as bounds.

T1 sequence (P47898 whole entry): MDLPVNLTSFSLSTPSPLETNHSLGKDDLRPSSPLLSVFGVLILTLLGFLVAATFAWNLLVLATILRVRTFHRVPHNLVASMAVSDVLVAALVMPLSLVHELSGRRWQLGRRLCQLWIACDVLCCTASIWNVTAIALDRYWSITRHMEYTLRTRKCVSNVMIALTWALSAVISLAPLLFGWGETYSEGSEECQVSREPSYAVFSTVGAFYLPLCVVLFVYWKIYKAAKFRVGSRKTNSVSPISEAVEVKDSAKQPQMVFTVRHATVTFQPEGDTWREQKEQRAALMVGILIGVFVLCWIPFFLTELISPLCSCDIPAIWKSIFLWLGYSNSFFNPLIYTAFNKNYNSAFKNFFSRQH

This assay addresses T1, h5-HT5A receptor (Homo sapiens, UniProt P47898).
T1 construct: expressed in transfected cells; host or cells: HEK293
Put plainly: [3H]5-CT binding assay h5-HT5A. Conditions: membranes from HEK293 cells expressing h5-HT5A, 2.5 nM [3H]5-CT; read-out: Binding affinity 5-HT5A (Ki). As to the method:
1. [^3H]5-CT binding assay h5-HT5A
Membranes from HEK293-cells, which permanently express the h5-HT5A receptor gene, were incubated in 100 mM Tris-HCl-buffer (pH 7.7), containing 1 mM EDTA in the presence of 2.5 nM [^3H]5-CT (600 μl total volume). The total binding is defined as the binding which is observed when the membranes are incubated alone in the presence of the radioligand. The inhibition induced by the compound is determined by incubation of cell membranes in the presence of the radioligand, and of different concentrations of the compound of interest. Unspecific binding is defined by the binding of [^3H]5-CT, which is obtained by incubation of the membranes as for the total binding but in the presence of 10 μM methiothepine. Following an incubation of 75 minutes at 30° C. the membrane suspension is filtered through GF/B-filters, wrapped in 0.03% PEI, wherein a Skatron® harvest system is used. The radioactivity retained in the filter is quantified by liquid scintillation counting.
In both assays, different concentrations of the test substances are used, and the Ki or the IC50 values are determined.
Broadly, the pKi is the Ki on a negative log10 scale, so that one unit is a factor of ten. On to `COc1cccc(OC)c1CNC(=N)Nc1nc(-c2cccc(Cl)c2)cs1` [Example 89, N-[4-(3-chlorophenyl)-1,3-thiazole-2-yl]-N′-(2,6-dimethoxybenzyl)guanidine hydrobromide], for which the pKi is over 7.30. For `COc1cccc(OC)c1CNC(=N)Nc1nc(-c2cccs2)cs1` [Example 90, N-(2,6-dimethoxybenzyl)-N′-[4-(2-thienyl)-1,3-thiazole-2-yl]guanidine hydrobromide], the pKi is over 7.30. In the case of `COc1cccc(OC)c1CNC(=N)Nc1nc(-c2ccc(F)cc2F)cs1` [Example 91, N-[4-(2,4-difluorophenyl)-1,3-thiazole-2-yl]-N′-(2,6-dimethoxybenzyl)guanidine hydrobromide], the pKi was over 7.30.

On to `COc1ccccc1CNC(=N)Nc1nc2ccccc2n1C` [Example 92, N-(2-methoxybenzyl)-N′-(1-methyl-1H-benzimidazole-2-yl)guanidine], for which the pKi is 6.30 to 7.30. Regarding `COc1ccccc1CNC(=N)Nc1nc2ccccc2[nH]1` [Example 93, N-1H-benzimidazole-2-yl-N′-(2-methoxybenzyl)guanidine acetate], the pKi was over 7.30. As for `COc1cccc(OC)c1CNC(=N)Nc1nc2c(s1)CCCC2` [Example 94, N-(2,6-dimethoxybenzyl)-N′-(4,5,6,7-tetrahydro-1,3-benzothiazole-2-yl)guanidine acetate], the figure is over 7.30; as for `COc1cccc(OC)c1CNC(=N)Nc1nc(-c2ccc(C(C)C)cc2)cs1` [Example 95, N-(2,6-dimethoxybenzyl)-N′-[4-(4-isopropylphenyl)-1,3-thiazole-2-yl]guanidine], 6.30 to 7.30; as for `COc1cccc(OC)c1CNC(=N)Nc1nc(-c2csc3ccccc23)cs1` [Example 96, N-[4-(1-benzothiene-3-yl)-1,3-thiazole-2-yl]-N′-(2,6-dimethoxybenzyl)guanidine hydrobromide], over 7.30. The result for `COc1cccc(OC)c1CNC(=N)Nc1nc(C2CCCCC2)cs1` [Example 97, N-(4-cyclohexyl-1,3-thiazole-2-yl)-N′-(2,6-dimethoxybenzyl)guanidine] reads over 7.30. As for `COc1ccccc1CNC(=N)Nc1nc(-c2ccccc2F)cs1` [Example 98, N-[4-(2-fluorophenyl)-1,3-thiazole-2-yl]-N′-(2-methoxybenzyl)guanidine], the figure is 6.30 to 7.30. In the case of `COc1ccccc1CNC(=N)Nc1nc(-c2cccc(F)c2)cs1` [Example 99, N-[4-(3-fluorophenyl)-1,3-thiazole-2-yl]-N′-(2-methoxybenzyl)guanidine], the pKi was 6.30 to 7.30. The result for `COc1ccccc1CNC(=N)Nc1nc(-c2ccc(OC(F)(F)F)cc2)cs1` [Example 100, N-(2-methoxybenzyl)-N′-{4-[4-(trifluoromethoxy)phenyl]-1,3-thiazole-2-yl}guanidine] reads over 7.30; that for `COc1ccccc1CNC(=N)Nc1nc(-c2ccc3c(c2)OCO3)cs1` [Example 101, N-[4-(1,3-benzodioxol-5-yl)-1,3-thiazole-2-yl]-N′-(2-methoxybenzyl)guanidine], 6.30 to 7.30. As to `COc1cccc(OC)c1CNC(=N)Nc1nc(C)c(C(=O)N(C)C)s1` [Example 102, 2-{[[(2,6-dimethoxybenzyl)amino](imino)methyl]amino}-N,N,4-trimethyl-1,3-thiazole-5-carboxamide], the pKi is over 7.30. For `COc1ccccc1CNC(=N)Nc1nc(-c2ccccc2C(F)(F)F)cs1` [Example 103, N-(2-methoxybenzyl)-N′-{4-[2-(trifluoromethyl)phenyl]-1,3-thiazole-2-yl}guanidine], the pKi is 6.30 to 7.30.

For the compound `COc1ccccc1CNC(=N)Nc1nc(-c2ccc(NS(C)(=O)=O)cc2)cs1` [Example 104, N-{4-[2-({imino[(2-methoxybenzyl)amino]methyl}amino)-1,3-thiazole-4-yl]phenyl}methanesulfonamide], the pKi was under 6.30.
